Residue numbers refer to the chain shown, from its start. Read-outs that look alike come from different tables or passages of the source.
Assays:
Type in all cases: cell-based
AR protein [1] = biological target: T1, AR protein (Homo sapiens, UniProt P10275, T878A); assay: Degradation of AR protein in LNCaP cells (Western blot); conditions: for inhibition at 0.01 µM: read-out: Degradation rates of the AR protein in LNCaP cells, 10 nM (%); for inhibition at 0.1 µM: read-out: Degradation rates of the AR protein in LNCaP cells, 100 nM (%)
T1 construct: degradation activity of the compounds disclosed in the present disclosure on AR protein in LNCaP cells; host or cells: LNCaP FGC
T1 sequence (P10275 1-920 T878A): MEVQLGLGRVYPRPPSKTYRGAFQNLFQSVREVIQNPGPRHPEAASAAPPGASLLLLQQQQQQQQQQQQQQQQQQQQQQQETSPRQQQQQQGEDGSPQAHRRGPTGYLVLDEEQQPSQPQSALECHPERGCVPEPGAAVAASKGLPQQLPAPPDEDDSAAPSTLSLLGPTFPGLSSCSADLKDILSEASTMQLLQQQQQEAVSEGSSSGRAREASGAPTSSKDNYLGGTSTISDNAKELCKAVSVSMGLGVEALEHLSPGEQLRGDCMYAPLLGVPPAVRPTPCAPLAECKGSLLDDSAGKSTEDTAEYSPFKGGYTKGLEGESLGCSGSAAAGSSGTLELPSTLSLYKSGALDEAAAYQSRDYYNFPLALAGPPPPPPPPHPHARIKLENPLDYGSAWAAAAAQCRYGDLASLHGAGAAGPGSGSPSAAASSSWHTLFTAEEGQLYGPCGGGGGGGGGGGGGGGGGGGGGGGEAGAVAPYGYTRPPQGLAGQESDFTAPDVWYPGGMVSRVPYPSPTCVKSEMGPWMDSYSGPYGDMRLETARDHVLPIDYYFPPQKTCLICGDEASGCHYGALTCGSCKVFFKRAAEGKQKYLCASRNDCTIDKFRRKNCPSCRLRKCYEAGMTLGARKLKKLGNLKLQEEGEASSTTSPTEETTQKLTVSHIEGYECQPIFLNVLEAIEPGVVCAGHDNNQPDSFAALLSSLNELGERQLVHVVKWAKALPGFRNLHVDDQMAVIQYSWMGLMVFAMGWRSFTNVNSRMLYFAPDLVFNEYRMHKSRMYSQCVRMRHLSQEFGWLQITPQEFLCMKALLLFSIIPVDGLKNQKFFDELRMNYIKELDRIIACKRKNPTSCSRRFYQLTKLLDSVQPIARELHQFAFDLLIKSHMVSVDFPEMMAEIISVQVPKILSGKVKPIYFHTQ
Method in brief: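 Percent AR degradation was derived from GAPDH-normalised Western blot band intensities (infrared detection) in LNCaP lysates.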

LNCaP FGC cells = assay: Inhibition of proliferation of LNCaP cells (WST-8)
Experimental: The cells were cultured in a cell culture incubator with 5% CO2 at 37° C. overnight. […] On the sixth day, 96 well plates were taken out, and 20 μL of WST-8 (Beytime, C0040) reagent was added to each well.

VCaP cells = assay: Inhibition of proliferation of VCaP cells (WST-8); conditions: Homo sapiens, read-out: IC50 for inhibiting the proliferation of VCaP cells
Method in brief: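 Proliferation was read by WST-8 on day nine. Cells were VCaP FGC, seeded at 15000 cells per well in 10% FBS DMEM and kept at 37° C with 5% CO2.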

AR protein [2] = biological target: T2, AR protein (Homo sapiens, UniProt P10275); assay: Degradation of AR protein in VCaP cells (Western blot); conditions: 8 hours; for inhibition at 0.01 µM: compound at 10 nM, read-out: Degradation rate of the AR protein in VCaP cells, 10 nM (%); for inhibition at 0.1 µM: compound at 100 nM, read-out: Degradation rate of the AR protein in VCaP cells, 100 nM (%)
T2 construct: degradation activity of the compounds disclosed in the present disclosure on AR protein in VCaP cells; host or cells: VCaP
T2 sequence (P10275 1-920): T1 sequence (P10275 1-920 T878A) with A878T
Method in brief: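 Western blot readout: AR band grayscale normalised to GAPDH, used to derive degradation rate. Lysates came from VCaP cells exposed to compound for 8 h, with solvent controls run in parallel.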

[3] = LNCaP cells, compound 10 nM, 8 hours, Western blot grayscale, GAPDH internal reference
[4] = LNCaP cells, compound 100 nM, 8 hours, Western blot grayscale, GAPDH internal reference
[5] = Homo sapiens, LNCaP, 96 h, LNCaP FGC cells, 96 hours, WST-8 absorbance at 450 nm, read-out: IC50 for inhibiting the proliferation of LNCaP cells
[6] = VCaP cells, 168 hours, WST-8 absorbance at 450 nm
[7] = Homo sapiens, LNCaP, 96 h, read-out: IC50 for inhibiting the proliferation of LNCaP cells, LNCaP FGC cells, 96 hours, WST-8 absorbance at 450 nm

Structure (SMILES)	inhibition at 0.01 µM (AR protein [1]; [3])	inhibition at 0.1 µM (AR protein [1]; [4])	IC50 (LNCaP FGC cells; [5])	IC50 (VCaP cells; [6])	inhibition at 0.01 µM (AR protein [2])	inhibition at 0.1 µM (AR protein [2])	IC50 (LNCaP FGC cells; LNCaP FGC cells, 96 hours, WST-8 absorbance at 450 nm, read-out: IC50 for inhibiting the proliferation of LNCaP cells)	inhibition at 0.01 µM (AR protein [1]; LNCaP, 8 h)	inhibition at 0.1 µM (AR protein [1]; LNCaP, 8 h)	IC50 (LNCaP FGC cells; [7])	IC50 (VCaP cells; VCaP, 168 h)
N#Cc1ccc(O[C@H]2CC[C@H](NC(=O)c3ccc(N4CCC(F)(CN5CC6(CCc7ccc8c(c7O6)C(=O)N(C6CCC(=O)NC6=O)C8)C5)CC4)nn3)CC2)cc1Cl (stereo partly drawn) [Compound 139]	42%	11%	52.3 µM	> 90 µM	-16%	-31%					
N#Cc1ccc(O[C@H]2CC[C@H](NC(=O)c3ccc(N4CC(N5CCC6(CC5)COc5c6ccc6c5C(=O)N(C5CCC(=O)NC5=O)C6=O)C4)nn3)CC2)cc1Cl (stereo partly drawn) [Compound 142]	29%	52%	> 90 µM	15.1 µM	26%	74%					
N#Cc1ccc(O[C@H]2CC[C@H](NC(=O)c3ccc(N4CCC(F)(CN5CCC6(CC5)COc5ccc7c(c5C6)C(=O)N(C5CCC(=O)NC5=O)C7)CC4)nn3)CC2)cc1Cl (stereo partly drawn) [Compound 147]	-3%	14%	17 µM	2.99 µM	24%	47%					
COC1(CN2CCC3(CC2)COc2ccc4c(c2C3)C(=O)N(C2CCC(=O)NC2=O)C4)CCN(c2ccc(C(=O)N[C@H]3CC[C@H](Oc4ccc(C#N)c(Cl)c4)CC3)nn2)CC1 (stereo partly drawn) [Compound 148]	38%	36%	8.66 µM	4.01 µM	18%	35%					
N#Cc1ccc(O[C@H]2CC[C@H](NC(=O)c3ccc(N4CCC5(CCC(N6CCC7(CC6)COc6ccc8c(c6C7)C(=O)N(C6CCC(=O)NC6=O)C8)CC5)CC4)nn3)CC2)cc1Cl (stereo partly drawn) [Compound 149]	1%	1%	3.73 µM	3.17 µM	-4%	26%					
N#Cc1ccc(O[C@H]2CC[C@H](NC(=O)c3ccc(N4CCC5(CCC(N6CCC7(CCc8ccc9c(c8O7)CN(C7CCC(=O)NC7=O)C9=O)CC6)CC5)CC4)nn3)CC2)cc1Cl (stereo partly drawn) [Compound 150]	52%	35%	3.13 µM	3.34 µM	65%	86%					
N#Cc1ccc(O[C@H]2CC[C@H](NC(=O)c3ccc(N4CC5(CC(N6CCC7(CCc8ccc9c(c8O7)CN(C7CCC(=O)NC7=O)C9=O)CC6)C5)C4)nn3)CC2)cc1Cl (stereo partly drawn) [Compound 152]	45%	24%	28.3 µM	> 90 µM	51%	72%					
N#Cc1ccc(O[C@H]2CC[C@H](NC(=O)c3ccc(N4CCC5(CC4)CC(N4CCC6(CCc7ccc8c(c7O6)CN(C6CCC(=O)NC6=O)C8=O)CC4)C5)nn3)CC2)cc1Cl (stereo partly drawn) [Compound 154]	46%	48%	39.5 µM	0.01 µM	75%	86%					
N#Cc1ccc(O[C@H]2CC[C@H](NC(=O)c3ccc(N4CCC(F)(CN5CC6(CCc7ccc8c(c7O6)C(=O)N(C6CCC(=O)NC6=O)C8=O)C5)CC4)nn3)CC2)cc1Cl (stereo partly drawn) [Compound 164]	25%	4%	90.5 µM	11.8 µM	4%	8%					
COC1(CN2CC3(CCc4ccc5c(c4O3)C(=O)N(C3CCC(=O)NC3=O)C5=O)C2)CCN(c2ccc(C(=O)N[C@H]3CC[C@H](Oc4ccc(C#N)c(Cl)c4)CC3)nn2)CC1 (stereo partly drawn) [Compound 165]	28%	25%	96.6 µM	> 90 µM	-43%	23%					
COC1(CN2CCC3(CCc4ccc5c(c4O3)CN(C3CCC(=O)NC3=O)C5=O)CC2)CCN(c2ccc(C(=O)N[C@H]3CC[C@H](Oc4ccc(C#N)c(Cl)c4)CC3)nn2)CC1 (stereo partly drawn) [Compound 167]	45%	18%		> 90 µM	33%	67%	80.1 µM				
N#Cc1ccc(O[C@H]2CC[C@H](NC(=O)c3ccc(N4CCC(N5CCC6(CCc7ccc8c(c7O6)CN(C6CCC(=O)NC6=O)C8=O)CC5)CC4)nn3)CC2)cc1Cl (stereo partly drawn) [Compound 171]					46%	62%		22%	44%	13.5 µM	0.001 µM
N#Cc1ccc(O[C@H]2CC[C@H](NC(=O)c3ccc(N4CC(N5CCC6(CCc7ccc8c(c7O6)CN(C6CCC(=O)NC6=O)C8=O)CC5)C4)nn3)CC2)cc1Cl (stereo partly drawn) [Compound 172]					-9%	-14%		12%	33%	91.4 µM	78.8 µM
N#Cc1ccc(O[C@H]2CC[C@H](NC(=O)c3ccc(N4CCC(N5CCC(N6CCC7(CC6)COc6c7ccc7c6CN(C6CCC(=O)NC6=O)C7=O)CC5)CC4)nn3)CC2)cc1Cl (stereo partly drawn) [Compound 173]					75%	86%		75%	72%	12.3 µM	0.001 µM

From patent US20260234157A1, “COMPOUND AND METHOD FOR TARGETED DEGRADATION OF ANDROGEN RECEPTOR” (Gan & Lee Pharmaceuticals Co., Ltd., priority 2023, published 2026)
